Data reported in ChEMBL document CHEMBL1146120 (J Med Chem, 2006).
Active and inactive are the calls of the source. The rule behind the calls is not given here.

Tests used:
[1] = test system: Rattus norvegicus; experiment: Antihypertrophic activity in Wistar rat at 21.3 mg/kg, ip; assay type: functional, organism-based; design: dose 21.3 mg/kg
[2] = test system: Plasma; experiment: Inhibition of ADP-mediated platelet aggregation in Wistar rat platelet-rich plasma at 100 uM; assay type: functional; design: scale not given: the % may be the effect or the level left
[3] = organism: Rattus norvegicus; experiment: Inhibition of NO-mediated vasorelaxation of KCl-induced contractile tone in Wistar rat thoracic aortic ring; assay type: functional; details: Aorta
[4] = organism: Rattus norvegicus; experiment: Activity against NO-mediated vasorelaxation of KCl-induced contractile tone in Wistar rat thoracic aortic ring; assay type: functional; details: Aorta
[5] = molecular target: T1, Type-1 angiotensin II receptor (Homo sapiens) (UniProt P30556); experiment: Antagonist activity against AT1 receptor after 60 min preincubation; assay type: functional
T1 sequence (whole entry): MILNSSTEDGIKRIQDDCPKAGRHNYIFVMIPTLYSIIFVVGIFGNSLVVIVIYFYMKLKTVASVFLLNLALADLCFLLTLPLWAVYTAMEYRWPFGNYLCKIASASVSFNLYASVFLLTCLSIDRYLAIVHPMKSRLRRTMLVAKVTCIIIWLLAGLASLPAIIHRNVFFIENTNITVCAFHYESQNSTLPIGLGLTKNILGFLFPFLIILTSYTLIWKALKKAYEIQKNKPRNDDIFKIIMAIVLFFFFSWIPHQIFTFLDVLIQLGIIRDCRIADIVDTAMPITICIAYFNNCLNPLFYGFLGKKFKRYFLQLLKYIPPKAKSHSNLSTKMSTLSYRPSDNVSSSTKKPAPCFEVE

[6] = organism: Rattus norvegicus; experiment: Activity against NO-mediated vasorelaxation of KCl-induced contractile tone in Wistar rat thoracic aortic ring at 1 uM; assay type: functional
[7] = molecular target: T1, Type-1 angiotensin II receptor (Homo sapiens); experiment: Antagonist activity against AT1 receptor after 20 min preincubation; assay type: functional

Row | Compound | Activity [1] | Activity [2] | IC50 [3] | Emax [4] | Kb [5] | Activity ([6]; Aorta) | Kb [7] | Activity [6]
1 | CCCCc1nc(Cl)c(CO)n1Cc1ccc(-c2ccccc2-c2nnn[nH]2)cc1 [LOSARTAN] | Active | 50% |  |  |  |  |  | 
2 | CCCCc1nc(Cl)c(COC(=O)c2cccc(CO[N+](=O)[O-])c2)n1Cc1ccc(-c2ccccc2-c2nn[nH]n2)cc1 | Active | 41% | 275 nM | 100% | 10 nM | Active |  | 
3 | CCCCc1nc(Cl)c(CO[N+](=O)[O-])n1Cc1ccc(-c2ccccc2-c2nn[nH]n2)cc1 [LOSARTAN NITROOXY ESTER] |  |  | 15100 nM | 100% | 3 nM |  | inactive | <25%
4 | C[C@H](CS)C(=O)N1CCC[C@H]1C(=O)O | Active |  |  |  |  |  |  | 
5 | CCCCc1nc(Cl)c(COC(=O)c2cccc(CO[N+](=O)[O-])n2)n1Cc1ccc(-c2ccccc2-c2nn[nH]n2)cc1 |  |  | 12300 nM | 100% |  |  | 8 nM | <25%
6 | CCCCc1nc(Cl)c(COC(=O)c2cccc(C(C)O[N+](=O)[O-])c2)n1Cc1ccc(-c2ccccc2-c2nn[nH]n2)cc1 (stereo not given) |  |  |  | 47% | 12 nM |  | inactive | <25%
7 | CCCCc1nc(Cl)c(C(=O)Oc2ccc(CO[N+](=O)[O-])cc2)n1Cc1ccc(-c2ccccc2-c2nn[nH]n2)cc1 |  |  | 275 nM | 100% |  | Active | inactive | 
8 | CCCCc1nc(Cl)c(C(=O)Oc2cccc(CO[N+](=O)[O-])c2)n1Cc1ccc(-c2ccccc2-c2nn[nH]n2)cc1 |  |  | 6030 nM | 100% |  |  |  | <25%
9 | CCCCc1nc(Cl)c(COC(=O)c2ccc(CO[N+](=O)[O-])cc2)n1Cc1ccc(-c2ccccc2-c2nn[nH]n2)cc1 |  |  | 66.1 nM | 100% |  | Active | 19 nM | 
10 | CCCCc1nc(Cl)c(COC(=O)c2ccc(C(C)O[N+](=O)[O-])cc2)n1Cc1ccc(-c2ccccc2-c2nn[nH]n2)cc1 (stereo not given) |  |  | 7760 nM | 100% | 8 nM |  | inactive | <25%
11 | CCCCc1nc(Cl)c(COC(=O)c2c(C)ccc(CO[N+](=O)[O-])c2C)n1Cc1ccc(-c2ccccc2-c2nn[nH]n2)cc1 |  |  | 32400 nM | 100% |  |  | inactive | <25%
12 | CCCCc1nc(Cl)c(COC(=O)CCCCO[N+](=O)[O-])n1Cc1ccc(-c2ccccc2-c2nn[nH]n2)cc1 |  |  | 851 nM | 100% |  |  | 16 nM | 
